Measured values published in patent US20250282794A1 (CURADEV PHARMA LTD, priority 2022, published 2025).

What follows are molecules tested against recombinant full length HPK-1 enzyme (Homo sapiens (Human), UniProt Q92918) (assay: HPK-1 biochemical enzyme assay (ADP-Glo kinase inhibition)). Conditions: recombinant full length HPK-1 6.8 nM, 10 μM ATP, 12.5 μM MBP, 30 mins at 25° C.
recombinant full length HPK-1 enzyme, sequence (Q92918 whole entry, species assumed): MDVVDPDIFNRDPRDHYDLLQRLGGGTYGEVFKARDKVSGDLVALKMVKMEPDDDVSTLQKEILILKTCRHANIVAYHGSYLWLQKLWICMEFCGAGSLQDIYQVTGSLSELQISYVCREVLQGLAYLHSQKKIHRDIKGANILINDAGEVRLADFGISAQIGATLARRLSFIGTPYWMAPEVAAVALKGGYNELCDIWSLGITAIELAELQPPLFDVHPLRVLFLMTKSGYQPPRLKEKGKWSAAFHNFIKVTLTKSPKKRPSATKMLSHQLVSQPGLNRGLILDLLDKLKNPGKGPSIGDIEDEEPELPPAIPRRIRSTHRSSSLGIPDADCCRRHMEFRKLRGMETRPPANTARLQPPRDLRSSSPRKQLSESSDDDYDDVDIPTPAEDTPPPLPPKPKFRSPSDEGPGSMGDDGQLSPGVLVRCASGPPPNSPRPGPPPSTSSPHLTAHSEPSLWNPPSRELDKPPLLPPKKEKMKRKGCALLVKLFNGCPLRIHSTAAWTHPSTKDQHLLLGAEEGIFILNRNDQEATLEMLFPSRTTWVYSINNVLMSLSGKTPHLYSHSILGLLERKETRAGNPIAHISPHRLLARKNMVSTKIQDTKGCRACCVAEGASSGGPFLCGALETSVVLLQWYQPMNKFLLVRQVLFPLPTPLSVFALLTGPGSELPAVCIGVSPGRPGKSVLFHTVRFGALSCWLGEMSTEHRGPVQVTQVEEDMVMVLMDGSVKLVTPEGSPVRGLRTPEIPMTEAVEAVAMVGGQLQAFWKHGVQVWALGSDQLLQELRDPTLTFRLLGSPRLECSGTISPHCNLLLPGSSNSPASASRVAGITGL
How it was run: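 ADP-Glo readout of ADP formed after a 30 min, 25° C. reaction of 6.8 nM full-length HPK-1 with swine myelin basic protein (12.5 μM) and ATP (10 μM) in Tris pH 7.4 buffer with MgCl2, DTT and BSA. Ten compound concentrations tested; percent inhibition set against vehicle (0%) and no-enzyme (100%) controls gave IC50.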
An IC50 of at most 0.01 µM was found for `Cc1c(Nc2cc[nH]c(=O)c2C(=O)Nc2ccc(N3CCN(C(=O)C4(C)CCC4)CC3)cc2)cnc2c1NCCO2` [Example 306, 4-((8-methyl-2,3-dihydro-1H-pyrido[2,3-b][1,4]oxazin-7-yl)amino)-N-(4-(4-(1-methylcyclobutane-1-carbonyl)piperazin-1-yl)phenyl)-2-oxo-1,2-dihydropyridine-3-carboxamide] in this work.
An IC50 of at most 0.01 µM was found for `Cc1c(Nc2cc[nH]c(=O)c2C(=O)Nc2ccc(N3CCN(C(=O)C4CC(C)C4)CC3)cc2)cnc2c1NCCO2` (stereo not drawn) [Example 307, 4-((8-methyl-2,3-dihydro-1H-pyrido[2,3-b][1,4]oxazin-7-yl)amino)-N-(4-(4-(3-methylcyclobutane-1-carbonyl)piperazin-1-yl)phenyl)-2-oxo-1,2-dihydropyridine-3-carboxamide] in this work.
An IC50 of at most 0.01 µM was found for `Cc1c(Nc2cc[nH]c(=O)c2C(=O)Nc2ccc(N3CCN(Cc4ccnn4C)CC3)cc2)cnc2c1NCCO2` [Example 308, N-(4-(4-((1-methyl-1H-pyrazol-5-yl)methyl)piperazin-1-yl)phenyl)-4-((8-methyl-2,3-dihydro-1H-pyrido[2,3-b][1,4]oxazin-7-yl)amino)-2-oxo-1,2-dihydropyridine-3-carboxamide] in this work.
An IC50 of at most 0.01 µM was found for `Cc1c(Nc2cc[nH]c(=O)c2C(=O)Nc2ccc(N3CCN(C(=O)C4CC4(C)C)CC3)cc2)cnc2c1NCCO2` (stereo not drawn) [Example 309, N-(4-(4-(2,2-dimethylcyclopropane-1-carbonyl)piperazin-1-yl)phenyl)-4-((8-methyl-2,3-dihydro-1H-pyrido[2,3-b][1,4]oxazin-7-yl)amino)-2-oxo-1,2-dihydropyridine-3-carboxamide] in this work.
An IC50 of at most 0.01 µM was found for `COC(C)(C)CN1CCN(c2ccc(NC(=O)c3c(Nc4cnc5c(c4C)NCCO5)cc[nH]c3=O)cc2)CC1` [Example 310, N-(4-(4-(2-methoxy-2-methylpropyl)piperazin-1-yl)phenyl)-4-((8-methyl-2,3-dihydro-1H-pyrido[2,3-b][1,4]oxazin-7-yl)amino)-2-oxo-1,2-dihydropyridine-3-carboxamide] in this work.
An IC50 of at most 0.01 µM was found for `Cc1c(Nc2cc[nH]c(=O)c2C(=O)Nc2ccc(N3CCN(C(=O)CC4CC4)CC3)cc2)cnc2c1NCCO2` [Example 312, N-(4-(4-(2-cyclopropylacetyl)piperazin-1-yl)phenyl)-4-((8-methyl-2,3-dihydro-1H-pyrido[2,3-b][1,4]oxazin-7-yl)amino)-2-oxo-1,2-dihydropyridine-3-carboxamide] in this work.
An IC50 of 0.01 to 0.1 µM was found for `CCC(=O)N1CCN(c2ccc(NC(=O)c3c(Nc4cnc5c(c4C)NCC(C)O5)cc[nH]c3=O)cc2Cl)CC1` (stereo not drawn) [Example 313, N-(3-chloro-4-(4-propionylpiperazin-1-yl)phenyl)-4-((3,8-dimethyl-2,3-dihydro-1H-pyrido[2,3-b][1,4]oxazin-7-yl)amino)-2-oxo-1,2-dihydropyridine-3-carboxamide] in this work.
An IC50 of at most 0.01 µM was found for `Cc1c(Nc2cc[nH]c(=O)c2C(=O)Nc2ccc(N3CCN(C(=O)C(C)C)CC3)cc2)cnc2c1NCCO2` [Example 315, N-(4-(4-Isobutyrylpiperazin-1-yl)phenyl)-4-((8-methyl-2,3-dihydro-1H-pyrido[2,3-b][1,4]oxazin-7-yl)amino)-2-oxo-1,2-dihydropyridine-3-carboxamide] in this work.
An IC50 of 0.01 to 0.1 µM was found for `Cc1c(Nc2cc[nH]c(=O)c2C(=O)Nc2ccc(N3CCN(C(=O)c4ccnn4C)CC3)cc2)cnc2c1NCCO2` [Example 316, N-(4-(4-(1-methyl-1H-pyrazole-5-carbonyl)piperazin-1-yl)phenyl)-4-((8-methyl-2,3-dihydro-1H-pyrido[2,3-b][1,4]oxazin-7-yl)amino)-2-oxo-1,2-dihydropyridine-3-carboxamide] in this work.
An IC50 of at most 0.01 µM was found for `Cc1c(Nc2cc[nH]c(=O)c2C(=O)Nc2ccc(N3CCN(C(=O)N4CC(C)(C)C4)CC3)cc2)cnc2c1NCCO2` [Example 317, N-(4-(4-(3,3-dimethylazetidine-1-carbonyl)piperazin-1-yl)phenyl)-4-((8-methyl-2,3-dihydro-1H-pyrido[2,3-b][1,4]oxazin-7-yl)amino)-2-oxo-1,2-dihydropyridine-3-carboxamide] in this work.
An IC50 of at most 0.01 µM was found for `Cc1c(Nc2cc[nH]c(=O)c2C(=O)Nc2ccc(N3CCN(C(=O)C4CC(F)(F)C4)CC3)cc2)cnc2c1NCCO2` [Example 318, N-(4-(4-(3,3-difluorocyclobutane-1-carbonyl)piperazin-1-yl)phenyl)-4-((8-methyl-2,3-dihydro-1H-pyrido[2,3-b][1,4]oxazin-7-yl)amino)-2-oxo-1,2-dihydropyridine-3-carboxamide] in this work.
An IC50 of at most 0.01 µM was found for `Cc1c(Nc2cc[nH]c(=O)c2C(=O)Nc2ccc(N3CCN(C(=O)N4CC(F)(F)C4)CC3)cc2)cnc2c1NCCO2` [Example 319, N-(4-(4-(3,3-difluoroazetidine-1-carbonyl)piperazin-1-yl)phenyl)-4-((8-methyl-2,3-dihydro-1H-pyrido[2,3-b][1,4]oxazin-7-yl)amino)-2-oxo-1,2-dihydropyridine-3-carboxamide] in this work.
An IC50 of at most 0.01 µM was found for `Cc1c(Nc2cc[nH]c(=O)c2C(=O)Nc2ccc(N3CCN(C(=O)N4CC5(CCC5)C4)CC3)cc2)cnc2c1NCCO2` [Example 320, N-(4-(4-(2-azaspiro[3.3]heptane-2-carbonyl)piperazin-1-yl)phenyl)-4-((8-methyl-2,3-dihydro-1H-pyrido[2,3-b][1,4]oxazin-7-yl)amino)-2-oxo-1,2-dihydropyridine-3-carboxamide] in this work.
An IC50 of 0.01 to 0.1 µM was found for `Cc1c(Nc2cc[nH]c(=O)c2C(=O)Nc2ccc(N3CCN(C(=O)N4CC5(COC5)C4)CC3)cc2)cnc2c1NCCO2` [Example 321, N-(4-(4-(2-oxa-6-azaspiro[3.3]heptane-6-carbonyl)piperazin-1-yl)phenyl)-4-((8-methyl-2,3-dihydro-1H-pyrido[2,3-b][1,4]oxazin-7-yl)amino)-2-oxo-1,2-dihydropyridine-3-carboxamide] in this work.
An IC50 of 0.01 to 0.1 µM was found for `Cc1c(Nc2cc[nH]c(=O)c2C(=O)Nc2ccc(N3CCN(C(=O)c4ccn(C)n4)CC3)cc2)cnc2c1NCCO2` [Example 322, N-(4-(4-(1-methyl-1H-pyrazole-3-carbonyl)piperazin-1-yl)phenyl)-4-((8-methyl-2,3-dihydro-1H-pyrido[2,3-b][1,4]oxazin-7-yl)amino)-2-oxo-1,2-dihydropyridine-3-carboxamide] in this work.
An IC50 of 0.01 to 0.1 µM was found for `Cc1c(Nc2cc[nH]c(=O)c2C(=O)Nc2ccc(N3CCN4CCOC[C@H]4C3)cc2)cnc2c1NCCO2` [Example 323, (R)-N-(4-(hexahydropyrazino[2,1-c][1,4]oxazin-8(1H)-yl)phenyl)-4-((8-methyl-2,3-dihydro-1H-pyrido[2,3-b][1,4]oxazin-7-yl)amino)-2-oxo-1,2-dihydropyridine-3-carboxamide] in this work.
An IC50 of at most 0.01 µM was found for `Cc1c(Nc2cc[nH]c(=O)c2C(=O)Nc2ccc(N3CCN(C(=O)N4CCCC4)CC3)cc2)cnc2c1NCCO2` [Example 324, 4-((8-methyl-2,3-dihydro-1H-pyrido[2,3-b][1,4]oxazin-7-yl)amino)-2-oxo-N-(4-(4-(pyrrolidine-1-carbonyl)piperazin-1-yl)phenyl)-1,2-dihydropyridine-3-carboxamide] in this work.
An IC50 of at most 0.01 µM was found for `Cc1c(Nc2cc[nH]c(=O)c2C(=O)Nc2ccc(N3CCN(C(=O)N4CCC4)CC3)cc2)cnc2c1NCCO2` [Example 325, N-(4-(4-(azetidine-1-carbonyl)piperazin-1-yl)phenyl)-4-((8-methyl-2,3-dihydro-1H-pyrido[2,3-b][1,4]oxazin-7-yl)amino)-2-oxo-1,2-dihydropyridine-3-carboxamide] in this work.
